What all share (experiment): in vitro antifungal test, Z. tritici spore suspension in PDB
Holding throughout (format): cell-based

Experiment [1] relates to K5544 Zymoseptoria tritici (WT). As to conditions: isolate K5544 (WT); for EC50 (ppm): growth at 3 days post exposure, average of two replicates; for M = (EC50 (enantiomer)/EC50 (racemate)) − 0.5: (−)-enantiomer vs racemate, below 0 = enantiomer outperforms racemate. The protocol: (§1) A panel of 16 Zymoseptoria tritici isolates was subjected to in vitro antifungal tests. Spore suspensions of Z. tritici isolates were prepared in potato dextrose broth (PDB) and exposed to defined concentration ranges of the inhibitors (20ppm starting concentration, dilution steps of 3). A sensitive wild-type isolate was used together with a panel of strains containing variants of the Z. tritici CYP51 gene conferring resistance to DMI fungicides. The DMI-resistant isolates were isolated from wheat in the UK, Ireland, Germany and Russia in 2020. Determination of CYP51 gene variants was achieved using targeted gene sequencing. The half maximal effective concentration (EC50) of the inhibitors were calculated based on growth responses of Z. tritici at 3 days post exposure to the different concentrations of the […] using a linear regression. The Tables A and B show an average of EC50 values in ppm from two replicates, as well as M=(EC50 (enantiomer)/EC50 (racemate))−0.5.

Experiment [2] concerns K9020 Zymoseptoria tritici CYP51 L50S V136A I381V Y461S S524T. The following applies: isolate K9020; for EC50 (ppm): growth at 3 days post exposure, average of two replicates; for M = (EC50 (enantiomer)/EC50 (racemate)) − 0.5: (−)-enantiomer vs racemate, below 0 = enantiomer outperforms racemate. As to the method: as §1
Experiment [3] concerns K9021 Zymoseptoria tritici CYP51 L50S V136A I381V Y461S S524T. As to conditions: isolate K9021; for EC50 (ppm): growth at 3 days post exposure, average of two replicates; for M = (EC50 (enantiomer)/EC50 (racemate)) − 0.5: (−)-enantiomer vs racemate, below 0 = enantiomer outperforms racemate. As to the method: as §1
The subject of experiment [4] is K9022 Zymoseptoria tritici CYP51 L50S V136A I381V Y461S S524T. The following applies: isolate K9022; for EC50 (ppm): growth at 3 days post exposure, average of two replicates; for M = (EC50 (enantiomer)/EC50 (racemate)) − 0.5: (−)-enantiomer vs racemate, below 0 = enantiomer outperforms racemate. As to the method: as §1
Experiment [5] relates to K9023 Zymoseptoria tritici CYP51 L50S V136C S188N A379G I381V YG459 S524T. As to conditions: for EC50 (ppm): growth at 3 days post exposure, average of two replicates; for M = (EC50 (enantiomer)/EC50 (racemate)) − 0.5: (−)-enantiomer vs racemate. The protocol: as §1
In experiment [6] the test system is K9026 Zymoseptoria tritici CYP51 L50S S188N A379G I381V YG459 N513K. As to conditions: for EC50 (ppm): growth at 3 days post exposure, average of two replicates; for M = (EC50 (enantiomer)/EC50 (racemate)) − 0.5: (−)-enantiomer vs racemate. As to the method: as §1
Experiment [7] deals with K9029 Zymoseptoria tritici CYP51 L50S I381V YG459 N513K. The following applies: for EC50 (ppm): growth at 3 days post exposure, average of two replicates; for M = (EC50 (enantiomer)/EC50 (racemate)) − 0.5: (−)-enantiomer vs racemate; for effectiveness compared with the racemate (in words): isolate K9029, summary of Tables A and B. As to the method:
as §1

Experiment [8] deals with K9032 Zymoseptoria tritici CYP51 L50S D134G V136A I381V Y461H S524T. The following applies: for EC50 (ppm): growth at 3 days post exposure, average of two replicates; for M = (EC50 (enantiomer)/EC50 (racemate)) − 0.5: (−)-enantiomer vs racemate. As to the method:
as §1

This is an account of results in patent US20250344697A1, “ENANTIOMERICALLY ENRICHED […] THE CONTROL OF RESISTANT PHYTOPATHOGENIC FUNGI” (SYNGENTA CROP PROTECTION AG, priority 2022, published 2025).

With `COC(=O)C(O)(Cn1cncn1)c1ccc(Oc2ccc(Cl)cc2)cc1Cl` (single isomer, unassigned; (+)) [(+)-enantiomer of Compound I-1, (+)Methyl 2-[2-chloro-4-(4-chlorophenoxy)phenyl]-2-hydroxy-3-(1,2,4-triazol-1-yl)propanoate], the “EC50 (ppm)” value in experiment [1] came to 1 ppm; in experiment [2], 2 ppm; in experiment [3] it was 5 ppm; in experiment [4], 20 ppm; in experiment [5] (isolate K9023, 2nd listed row), 9 ppm; in experiment [5] (isolate K9023, 3rd listed row), 19 ppm. The “EC50 (ppm)” value was 20 ppm in experiment [5] (isolate K9023); 20 ppm in experiment [6] (isolate K9026, 1st listed row); 5 ppm in experiment [6] (isolate K9026, 2nd listed row); 3 ppm in experiment [6] (isolate K9026, 3rd listed row); 20 ppm in experiment [7] (isolate K9029, 1st listed row); 20 ppm in experiment [7] (isolate K9029, 2nd listed row). Further, the “EC50 (ppm)” value in experiment [7] (isolate K9029, 3rd listed row) stood at 20 ppm; in experiment [8] (isolate K9032, 1st listed row), 12 ppm; in experiment [8] (isolate K9032, 2nd listed row), 7 ppm; in experiment [8] (isolate K9032, 3rd listed row) it was 8 ppm.

On to `COC(=O)C(O)(Cn1cncn1)c1ccc(Oc2ccc(Cl)cc2)cc1C(F)(F)F` (single isomer, unassigned; (-)) [(−)-enantiomer of Compound I-2, (−)-Methyl 2-[4-(4-chlorophenoxy)-2-(trifluoromethyl)phenyl]-2-hydroxy-3-(1,2,4-triazol-1-yl)propanoate], for which the “M = (EC50 (enantiomer)/EC50 (racemate)) − 0.5” value in experiment [1] was 0.50; in experiment [2], 0.17; in experiment [3], 0.06; in experiment [4], 0.07; in experiment [5] (isolate K9023, 2nd listed row), 0.50; in experiment [5] (isolate K9023, 3rd listed row) it was 0.17. Also, the “M = (EC50 (enantiomer)/EC50 (racemate)) − 0.5” value is 0.50 in experiment [5] (isolate K9023); 0.00 in experiment [6] (isolate K9026, 1st listed row); 0.21 in experiment [6] (isolate K9026, 2nd listed row); 0.07 in experiment [6] (isolate K9026, 3rd listed row); 0.13 in experiment [7] (isolate K9029, 1st listed row); −0.17 in experiment [7] (isolate K9029, 2nd listed row). The “M = (EC50 (enantiomer)/EC50 (racemate)) − 0.5” value in experiment [7] (isolate K9029, 3rd listed row) was 0.00; in experiment [8] (isolate K9032, 1st listed row), 0.00; in experiment [8] (isolate K9032, 2nd listed row), 0.20; in experiment [8] (isolate K9032, 3rd listed row), 0.30. Further, the “EC50 (ppm)” value in experiment [1] is on record as 0.03 ppm; in experiment [2], 0.02 ppm; in experiment [3], 0.05 ppm; in experiment [4], 0.4 ppm; in experiment [5] (isolate K9023, 2nd listed row), 0.1 ppm; in experiment [5] (isolate K9023, 3rd listed row) it was 0.2 ppm. In addition, the “EC50 (ppm)” value in experiment [5] (isolate K9023) stood at 0.3 ppm; in experiment [6] (isolate K9026, 1st listed row) it was 3 ppm; in experiment [6] (isolate K9026, 2nd listed row), 0.05 ppm; in experiment [6] (isolate K9026, 3rd listed row), 0.04 ppm; in experiment [7] (isolate K9029, 1st listed row) it was 0.5 ppm; in experiment [7] (isolate K9029, 2nd listed row), 1 ppm. Moreover, the “EC50 (ppm)” value stood at 5 ppm in experiment [7] (isolate K9029, 3rd listed row); 0.1 ppm in experiment [8] (isolate K9032, 1st listed row); 0.07 ppm in experiment [8] (isolate K9032, 2nd listed row); 0.08 ppm in experiment [8] (isolate K9032, 3rd listed row). The “effectiveness compared with the racemate (in words)” value in experiment [7] was “more effective”.

On to `COC(=O)C(O)(Cn1cncn1)c1ccc(Oc2ccc(Cl)cc2)cc1Cl` (single isomer, unassigned; (-)) [(−)-enantiomer of Compound I-1, (−)-Methyl 2-[2-chloro-4-(4-chlorophenoxy)phenyl]-2-hydroxy-3-(1,2,4-triazol-1-yl)propanoate], for which the “M = (EC50 (enantiomer)/EC50 (racemate)) − 0.5” value is reported as 0.17 in experiment [1]; −0.17 in experiment [2]; −0.06 in experiment [3]; 0.00 in experiment [4]; 0.00 in experiment [5] (isolate K9023, 2nd listed row); 0.00 in experiment [5] (isolate K9023, 3rd listed row). For the same molecule, the “M = (EC50 (enantiomer)/EC50 (racemate)) − 0.5” value was 0.10 in experiment [5] (isolate K9023); −0.10 in experiment [6] (isolate K9026, 1st listed row); 0.00 in experiment [6] (isolate K9026, 2nd listed row); 0.00 in experiment [6] (isolate K9026, 3rd listed row); −0.13 in experiment [7] (isolate K9029, 1st listed row); −0.23 in experiment [7] (isolate K9029, 2nd listed row). Further, the “M = (EC50 (enantiomer)/EC50 (racemate)) − 0.5” value in experiment [7] (isolate K9029, 3rd listed row) was −0.20; in experiment [8] (isolate K9032, 1st listed row) it was 0.00; in experiment [8] (isolate K9032, 2nd listed row), 0.10; in experiment [8] (isolate K9032, 3rd listed row), 0.10. For the same molecule, the “EC50 (ppm)” value in experiment [1] is given as 0.02 ppm; in experiment [2] it was 0.01 ppm; in experiment [3], 0.04 ppm; in experiment [4], 0.3 ppm; in experiment [5] (isolate K9023, 2nd listed row) it was 0.1 ppm; in experiment [5] (isolate K9023, 3rd listed row) it was 0.2 ppm. Besides, the “EC50 (ppm)” value is listed as 0.3 ppm in experiment [5] (isolate K9023); 4 ppm in experiment [6] (isolate K9026, 1st listed row); 0.05 ppm in experiment [6] (isolate K9026, 2nd listed row); 0.05 ppm in experiment [6] (isolate K9026, 3rd listed row); 0.3 ppm in experiment [7] (isolate K9029, 1st listed row); 0.8 ppm in experiment [7] (isolate K9029, 2nd listed row). Besides, the “EC50 (ppm)” value in experiment [7] (isolate K9029, 3rd listed row) came to 3 ppm; in experiment [8] (isolate K9032, 1st listed row), 0.1 ppm; in experiment [8] (isolate K9032, 2nd listed row), 0.06 ppm; in experiment [8] (isolate K9032, 3rd listed row) it was 0.06 ppm. Also, the “effectiveness compared with the racemate (in words)” value in experiment [2] (summary of Tables A and B) is “more effective”; in experiment [6] (isolate K9026, summary of Tables A and B) it was “more effective”; in experiment [7], “more effective”.

As for `COC(=O)C(O)(Cn1cncn1)c1ccc(Oc2ccc(Cl)cc2)cc1C(F)(F)F` (single isomer, unassigned; (+)) [(+)-enantiomer of Compound I-2], the “EC50 (ppm)” value is reported as 0.5 ppm in experiment [1]; 1 ppm in experiment [2]; 3 ppm in experiment [3]; more than 20 ppm in experiment [4]; 6 ppm in experiment [5] (isolate K9023, 2nd listed row); 9 ppm in experiment [5] (isolate K9023, 3rd listed row). The “EC50 (ppm)” value is 9 ppm in experiment [5] (isolate K9023); more than 20 ppm in experiment [6] (isolate K9026, 1st listed row); 3 ppm in experiment [6] (isolate K9026, 2nd listed row); 2 ppm in experiment [6] (isolate K9026, 3rd listed row); more than 20 ppm in experiment [7] (isolate K9029, 1st listed row); more than 20 ppm in experiment [7] (isolate K9029, 2nd listed row). Besides, the “EC50 (ppm)” value in experiment [7] (isolate K9029, 3rd listed row) was more than 20 ppm; in experiment [8] (isolate K9032, 1st listed row), 7 ppm; in experiment [8] (isolate K9032, 2nd listed row), 4 ppm; in experiment [8] (isolate K9032, 3rd listed row), 4 ppm.

As for `COC(=O)C(O)(Cn1cncn1)c1ccc(Oc2ccc(Cl)cc2)cc1Cl` (racemic) [Racemate Compound I-1], the “EC50 (ppm)” value was found to be 0.03 ppm in experiment [1]; 0.03 ppm in experiment [2]; 0.09 ppm in experiment [3]; 0.6 ppm in experiment [4]; 0.2 ppm in experiment [5] (isolate K9023, 2nd listed row); 0.4 ppm in experiment [5] (isolate K9023, 3rd listed row). For the same molecule, the “EC50 (ppm)” value in experiment [5] (isolate K9023) was determined as 0.5 ppm; in experiment [6] (isolate K9026, 1st listed row), 10 ppm; in experiment [6] (isolate K9026, 2nd listed row), 0.1 ppm; in experiment [6] (isolate K9026, 3rd listed row), 0.1 ppm; in experiment [7] (isolate K9029, 1st listed row), 0.8 ppm; in experiment [7] (isolate K9029, 2nd listed row), 3 ppm. Besides, the “EC50 (ppm)” value is listed as 10 ppm in experiment [7] (isolate K9029, 3rd listed row); 0.2 ppm in experiment [8] (isolate K9032, 1st listed row); 0.1 ppm in experiment [8] (isolate K9032, 2nd listed row); 0.1 ppm in experiment [8] (isolate K9032, 3rd listed row).
